Measurements taken from PMC7827417, “Steroid Glycosides Hyrcanoside and Deglucohyrcanoside: On Isolation, Structural Identification, and Anticancer Activity” (Foods, 2021).

Legend:
CCRF-CEM = assay: MTS cytotoxic assay, CCRF-CEM; assay type: cell-based; conditions: Homo sapiens, 72 h
From the text: (§1) If not indicated otherwise, the cell lines were purchased from the American Type Culture Collection (ATCC). […] K562 is the erythroid-myeloid precursor cell line derived from chronic myeloid leukemia carrying the BCR-ABL hybrid gene. A549, MCF-7, PC-3, 5637, U-2 OS, and MiaPaCa-2 are cells derived from lung, breast, prostate, bladder carcinoma, osteosarcoma, and pancreatic adenocarcinoma, respectively. HEK 293T are transformed human embryonic kidney cells, and L929 (Sigma, St. Louis, MS, USA) are transformed mouse fibroblasts. HCT116, cells from colorectal carcinoma, and their p53 gene knock-out variant (HCT116p53-/-) were purchased from Horizon Discovery. This cell line is a model of human tumors bearing p53 loss-of-function mutations or biallelic deletion of the p53 gene, frequently associated with poor prognosis. The MRC-5 and BJ cells were used as noncancerous cells; more specifically, they are human fibroblasts from the lungs and foreskin, respectively. According to the supplier’s recommendations, all cells were cultured at 37 °C in a 5% CO2 atmosphere and 100% humidity. The culture media used were: DMEM, RPMI 1640, and MEM (according to a cell line); all were supplemented with 5 g L^−1 glucose, 10% fetal calf serum, 2 mM glutamine, 100 U mL^−1 penicillin, 100 µg mL^−1 streptomycin, and NaHCO3. Cells were passaged every two or three days using 0.25% trypsin plus 0.01% EDTA (ethylenediamine tetraacetic acid) in phosphate-buffered saline.
(§2) To evaluate compound cytotoxicity, cells were seeded in 384-well microtiter plates in a volume of […]. The next day, aliquots of the tested derivatives were transferred with Echo550 acoustic liquid handler (Labcyte) to obtain dose response curves with dilution factor 4. The experiments were performed in technical duplicates and three or more biological replicates. After 72 h of incubation in a humidified incubator, […] of the MTS/PMS stock solution were pipetted into each well. After another 1–4 h of incubation, the absorbance at 490 nm was measured using an EnVision Multilabel Plate Reader (PerkinElmer).

A549 = assay: MTS cytotoxic assay, A549; assay type: cell-based; conditions: Homo sapiens, A549, 72 h
From the text: as §1, §2

HCT116 = assay: MTS cytotoxic assay, HCT116; assay type: cell-based; conditions: Homo sapiens, HCT-116, 72 h
From the text: as §1, §2

MiaPaCa-2 = assay: MTS cytotoxic assay, MiaPaCa-2; assay type: cell-based; conditions: Homo sapiens, MIA PaCa-2, 72 h
From the text: as §1, §2

MCF-7 = assay: MTS cytotoxic assay, MCF-7; assay type: cell-based; conditions: Homo sapiens, MCF7, 72 h
From the text: as §1, §2

U-2 OS = assay: MTS cytotoxic assay, U-2 OS; assay type: cell-based; conditions: Homo sapiens, U2OS, 72 h
From the text: as §1, §2

5637 = assay: MTS cytotoxic assay, 5637; assay type: cell-based; conditions: Homo sapiens, 72 h
From the text: as §1, §2

PC-3 = assay: MTS cytotoxic assay, PC-3; assay type: cell-based; conditions: Homo sapiens, PC-3, 72 h
From the text: as §1, §2

HEK 293T = assay: MTS cytotoxic assay, HEK 293T; assay type: cell-based; conditions: Homo sapiens, HEK-293T, 72 h
From the text: as §1, §2

MRC-5 = assay: MTS cytotoxic assay, MRC-5; assay type: cell-based; conditions: Homo sapiens, MRC5, 72 h
From the text: as §1, §2

L929 = assay: MTS cytotoxic assay, L929; assay type: cell-based, mouse; conditions: Mus musculus, L929, 72 h
From the text: as §1, §2

CCRF-CEM cells [1] = assay: Cell cycle arrest and cell death analysis by flow cytometry (propidium iodide, pH3Ser10); assay type: cell-based, human; conditions: % of positive cells
Experimental: Together with the CG-treated cells, a vehicle-treated sample was harvested at the same time point. After 24 h, the cells were washed with cold phosphate-buffered saline, fixed dropwise in 70% ethanol, and stored overnight at −20 °C. The cells were then washed with hypotonic citrate buffer, treated with RNAse (50 µg mL^−1), and stained with propidium iodide. Flow cytometry using a 488 nm laser (FACS-Calibur, Becton Dickinson, NJ, USA) was used for measurement. The cell cycle was analyzed by the ModFitLT program (Verity), and apoptosis was measured in a logarithmic model expressing the percentage of particles with a lower propidium content than cells in the G0/G1 phase (<G1) of the cell cycle in the CellQuest program (Becton Dickinson). Half of the sample was used to label cells with pH3^Ser10-FITC antibody (Exbio) for subsequent flow cytometry analysis of mitotic cells.

CCRF-CEM cells [2] = assay: BrDU incorporation analysis (DNA synthesis); assay type: cell-based, human; conditions: % of positive cells
Experimental: The cells were cultured in the same way as the cell cycle analysis method. Just before harvesting, 5-bromo-2′-deoxyuridine (BrDU) of 10 µM concentration was added to the cells for pulse-labeling for 30 min. Then, the cells were fixed with −20 °C cold 70% ethanol and stored in a freezer for 16 h. Before antibody staining, the samples were incubated on ice for 30 min, washed once with phosphate-buffered saline (PBS), and re-suspended in 2 M of HCl for 30 min at room temperature to hydrolyze their DNA. After neutralization with 0.1 M of Na2B4O7 (borax) solution, the cells were washed with PBS containing 0.5% Tween-20 and 1% BSA. This was followed by staining with the primary anti-BrDU antibody (Exbio) for 30 min at room temperature. Then, the cells were washed with PBS and stained with a secondary anti-mouse antibody conjugated to fluorescein isothiocyanate (Merck-Sigma, St. Louis, MS, USA) at room temperature in the dark. After another washing with PBS and incubation with propidium iodide (0.1 mg·mL^−1) and RNAse A (0.5 mg·mL^−1) for 1 h at room temperature in the dark, the cells were analyzed by flow cytometry using a 488 nm laser (FACSCalibur, Becton Dickinson, Franklin Lakes, NJ, USA).

CCRF-CEM cells [3] = assay: BrU incorporation analysis (RNA synthesis); assay type: cell-based, human; conditions: % of positive cells
Experimental: The cells were cultured and processed as described above. Before harvesting, the cells were pulse-labeled with 1 mM of 5-bromouridine (BrU) for 30 min. The cells were then fixed in 1% buffered paraformaldehyde with 0.05% NP-40 at room temperature for 15 min, and then stored at 4 °C overnight. Before measurement, they were washed with 1% glycine in PBS, washed again with PBS, and stained with primary anti-BrdU antibody cross-reactive to BrU (Exbio) for 30 min at room temperature in the dark. From this point on, the experiment was performed exactly as in the method described above.

With C[C@H]1O[C@@H](O[C@H]2[C@@H](O)C[C@H](O[C@H]3[C@@H](O)C[C@H](O[C@H]4CC[C@@]5(C)[C@H](CC[C@@H]6[C@@H]5CC[C@]5(C)[C@@H](C7=CC(=O)OC7)CC[C@]65O)C4)O[C@@H]3C)O[C@@H]2C)C[C@H](O)[C@@H]1O [Dg, digitoxin] the IC50 (CCRF-CEM) was 20 ± 3.5 nM, the IC50 (A549) was 19 ± 2 nM and the IC50 (HCT116) was 20 ± 1.5 nM. For the same molecule, the IC50 (MiaPaCa-2) was 79 ± 2.8 nM, the IC50 (MCF-7) was 78 ± 1.1 nM and the IC50 (U-2 OS) was 45 ± 2.1 nM. The IC50 5637 was 58 ± 1.6 nM, the IC50 (PC-3) was 69 ± 2.2 nM and the IC50 (HEK 293T) was 69 ± 2.1 nM. The IC50 (MRC-5) was 78 ± 1.9 nM, the IC50 (L929) was over 10000 nM and the “< G1 (apoptotic cells)” value (CCRF-CEM cells [1]; 1 × IC50, 24 h) was 7.56%. The G0/G1 (CCRF-CEM cells [1]; 1 × IC50, 24 h) was 33.21%, the G2/M (CCRF-CEM cells [1]; 1 × IC50, 24 h) was 30.51% and the “M (Phospho-Histone3 (Ser10))” value (CCRF-CEM cells [1]; 1 × IC50, 24 h) was 1.97%. For the same molecule, the S (CCRF-CEM cells [1]; 1 × IC50, 24 h) was 36.28%, the “< G1 (apoptotic cells)” value (CCRF-CEM cells [1]; 5 × IC50, 24 h) was 10.35% and the G0/G1 (CCRF-CEM cells [1]; 5 × IC50, 24 h) was 33.71%. The G2/M (CCRF-CEM cells [1]; 5 × IC50, 24 h) was 44.03%, the “M (Phospho-Histone3 (Ser10))” value (CCRF-CEM cells [1]; 5 × IC50, 24 h) was 1.28% and the S (CCRF-CEM cells [1]; 5 × IC50, 24 h) was 22.26%. It also gave a BrDU (CCRF-CEM cells [2]; 1 × IC50, 24 h) of 35.91%, a BrDU (CCRF-CEM cells [2]; 5 × IC50, 24 h) of 23.52% and a BrU (CCRF-CEM cells [3]; 1 × IC50, 24 h) of 42.99%. It also gave a BrU (CCRF-CEM cells [3]; 5 × IC50, 24 h) of 3.88%.
